Experiments:
Format in all cases: in vivo, mouse
[1] = tested on: colon cancer-derived Colon26 cells; assay: Example 5: Balb/c mice inoculated with Colon26 cells, oxaliplatin or 5-FU combination; conditions: antibody 50 μg iv day 5; oxaliplatin 5 mg/kg or 5-FU 30 mg/kg iv 1 hour later; oxaliplatin and antibody single 4, 7, 10, 12, 14, 17 days; 5-FU single only 7 days; combinations from 10 days; Mann-Whitney U
Protocol: The back of each Balb/c mouse (5 weeks old, female) was intracutaneously inoculated with 3.5×10^5 colon cancer-derived Colon26 cells (50 μL).
To an anti-mouse CCR8 antibody single administration group, 50 μg (200 μL) of an anti-mouse CCR8 antibody (clone SA214G2, BioLegend, Inc.) was intravenously administered 5 days after tumor inoculation, and saline was intravenously administered at a volume of 10 ml/kg body weight 1 hour after the administration of the anti-mouse CCR8 antibody (N=10).
To an oxaliplatin single administration group, 50 μg (200 μL) of an isotype control antibody was intravenously administered 5 days after tumor inoculation, and oxaliplatin (trade name: ELPLAT, Yakult Honsha Company, Limited) at 5 mg/kg body weight was intravenously administered at a volume of 10 mL/kg body weight 1 hour after the administration of the isotype control antibody (N=10). […]
Tumor volumes were measured every 2 to 3 days from 4 days after tumor inoculation (a day before antibody administration). The tumor volume (mm^3) was measured in long diameter (mm)×short diameter (mm)×short diameter (mm)/2, and a significant difference test based on a Mann-Whitney U method (significance level: P<0.05) was conducted.

[2] = tested on: colon cancer-derived CT26 cells; assay: Example 12: hCCR8-KI (KI/KI) mice inoculated with CT26 cells, 5-FU combination; conditions: antibody 0.1 mg/kg iv day 5; 5-FU 30 mg/kg iv 3 hours later; single groups 8, 12, 15 days, combined from 8 days; Mann-Whitney U
Protocol: The back of each hCCR8-KI (KI/KI) mouse (14 weeks old, female) prepared in Test Example 10 was intracutaneously inoculated with 3.5×10^5 colon cancer-derived CT26 cells (50 μL).
To an anti-human CCR8 antibody single administration group, an anti-human CCR8 antibody (humanized 10A11 antibody (light chain variable region: IGKV4-1 N53Q+G29R (SEQ ID NO: 59)/heavy chain variable region: IGHV3-15 T94R (SEQ ID NO: 41)) was intravenously administered at 0.1 mg/kg body weight 5 days after tumor inoculation, and saline was intravenously administered 3 hours after the administration of the anti-human CCR8 antibody (N=8). To a 5-FU single administration group, a saline was intravenously administered 5 days after tumor inoculation, and 5-FU (trade name: 5-FU INJECTION 250 KYOWA, Kyowa Hakko Kirin Co. Ltd) was intravenously administered at 30 mg/kg body weight 3 hours after the administration of the saline (N=8). […] Tumor volumes were measured every 3 to 4 days from […] after tumor inoculation (a day before antibody administration). The tumor volume (mm^3) was measured in long diameter (mm)×short diameter (mm)×short diameter (mm)/2, and a significant difference test based on a Mann-Whitney U method (significance level: P<0.05) was conducted.

[3] = tested on: colon cancer-derived Colon26 cells; assay: Example 6: hCCR8-KI (KI/KI) mice inoculated with Colon26 cells, oxaliplatin combination; conditions: antibody 15 mg/kg iv day 5; oxaliplatin 5 mg/kg iv 3 hours later; single groups 4, 7, 10, 12, 14, 17, 18 days, combined from 7 days; Mann-Whitney U
Protocol: The back of each hCCR8-KI (KI/KI) mouse (12 weeks old, female) prepared in Test Example 10 was intracutaneously inoculated with 3.5×10^5 colon cancer-derived Colon26 cells (50 uL).
To an anti-human CCR8 antibody single administration group, an anti-human CCR8 antibody (humanized 10A11 antibody (light chain variable region: IGKV4-1 N53Q+G29R (SEQ ID NO: 59)/heavy chain variable region: IGHV3-15 T94R (SEQ ID NO: 41))) at 15 mg/kg body weight was intravenously administered 5 days after tumor inoculation, and saline was intravenously administered 3 hours after the administration of the anti-human CCR8 antibody (N=10). To an oxaliplatin single administration group, saline was intravenously administered 5 days after tumor inoculation, and oxaliplatin (trade name: ELPLAT, Yakult Honsha Company, Limited) at 5 mg/kg body weight was intravenously administered 3 hours after the administration of the saline (N=10). […] Tumor volumes were measured every 1 to 3 days from 4 days after tumor inoculation (a day before antibody administration). The tumor volume (mm^3) was measured in long diameter (mm)×short diameter (mm)×short diameter (mm)/2, and a significant difference test based on a Mann-Whitney U method (significance level: P<0.05) was conducted.

[4] = tested on: colon cancer-derived Colon26 cells; assay: Example 11: hCCR8-KI (KI/KI) mice inoculated with Colon26 cells, oxaliplatin combination (Part 2); conditions: as Example 6; 2-7B part: oxaliplatin 10, 14, 17 days, antibody 14, 17 days; 19D7 part: oxaliplatin 10, 14 days, antibody 14 days; combinations from 10 days; Student's T one-sided
Protocol: To an oxaliplatin single administration group, saline was intravenously administered 5 days after tumor inoculation, and oxaliplatin (trade name: ELPLAT, Yakult Honsha Company, Limited) at 5 mg/kg body weight was intravenously administered 3 hours after the administration of the saline (N=10). To an anti-mouse CCR8 antibody and oxaliplatin combined administration group, an anti-human CCR8 antibody at 15 mg/kg body weight was intravenously administered 5 days after tumor inoculation, and oxaliplatin at 5 mg/kg body weight was intravenously administered 3 hours after the administration of the anti-mouse CCR8 antibody (N=10). To a control group, saline was intravenously administered 5 days after tumor inoculation, and saline was intravenously administered 3 hours after the administration of the saline (N=10). […] Tumor volumes were measured every 1 to 3 days from 4 days after tumor inoculation (a day before antibody administration). The tumor volume (mm^3) was measured in long diameter (mm)×short diameter (mm)×short diameter (mm)/2, and a significant difference test based on a Mann-Whitney U method (significance level: P<0.05) was conducted. […]

| Structure (SMILES) | tumor volume as compared to the control group [1] | tumor volume as compared to the control group [2] | tumor volume as compared to the control group [3] | tumor volume as compared to the control group [4] |
| --- | --- | --- | --- | --- |
| O=c1[nH]cc(F)c(=O)[nH]1 [5-FU, fluorouracil, reference compound] | significant decrease | no significant decrease |  |  |
| O=C1[O][Pt]2([NH][C@@H]3CCCC[C@H]3[NH]2)[O]C1=O [oxaliplatin, reference compound] | no significant decrease |  | no significant decrease | no significant decrease |

From patent US20230256092A1, “COMBINED USE OF ANTI-CCR8 ANTIBODY AND CHEMOTHERAPEUTIC AGENT” (Shionogi & Co., Ltd., priority 2020, published 2023)
